{"source": "patent US6790644B2", "about": "“1,3-dicarbonyl-dioxygenase—a new c-c-bond cleaving enzyme” (Biocatalytics, Inc., priority 2001, dated 2004)", "molecules": {"B1": {"name": "1,3-dicarbonyl-dioxygenase: Purified A. johnsonii enzyme, about 67 kDa, subunits of about 16.6 kDa (SEQ ID NO: 2), cleaves 1,3-dicarbonyl compounds with molecular oxygen (protein)", "chain": "MDYCNKKHTAEEYVKISDNNYVPFPEAFSDGGITWQLLHSSPETSSWTAIFNCPAGSSFASHIHAGPGEYFLTKGKMEVRGGEQEGGSTAYAPSYGFESSGALHGKTFFPVESQFYMTFLGPLNFIDDNGKVIASIGWAEAQGAWLATKNEAA"}}, "key": {"CC(=O)C(C)C(C)=O": {"system": "CC(=O)C(C)C(C)=O", "experiment": "purified protein, by the assay type", "details": "other: apparent; photometric, oxygen-saturated buffer, substrate 10-200 μM; pH 7.5; 25.0 °C"}, "CC(=O)CC(=O)C(C)(C)C": {"system": "CC(=O)CC(=O)C(C)(C)C", "experiment": "purified protein, by the assay type", "details": "other: apparent; photometric, oxygen-saturated buffer, substrate 10-200 μM; pH 7.5; 25.0 °C"}, "CCCCC(=O)CC(C)=O": {"system": "CCCCC(=O)CC(C)=O", "experiment": "purified protein, by the assay type", "details": "other: apparent; photometric, oxygen-saturated buffer, substrate 10-200 μM; pH 7.5; 25.0 °C"}, "CC(=O)C1CCCCC1=O": {"system": "CC(=O)C1CCCCC1=O", "experiment": "purified protein, by the assay type", "details": "other: apparent; photometric, oxygen-saturated buffer, substrate 10-200 μM; pH 7.5; 25.0 °C"}, "CC(=O)C1CCCC1=O": {"system": "CC(=O)C1CCCC1=O", "experiment": "purified protein, by the assay type", "details": "other: apparent; photometric, oxygen-saturated buffer, substrate 10-200 μM; pH 7.5; 25.0 °C"}, "CCCCCC(=O)CC(C)=O": {"system": "CCCCCC(=O)CC(C)=O", "experiment": "purified protein, by the assay type", "details": "other: apparent; photometric, oxygen-saturated buffer, substrate 10-200 μM; pH 7.5; 25.0 °C"}, "tRNA": {"system": "tRNA", "details": "cited from earlier work"}, "Salmonella typhimurium": {"system": "Salmonella typhimurium", "details": "cited from earlier work"}, "[1]": {"details": "cited from earlier work"}, "[2]": {"biological_target": "wild-type 1,3-dicarbonyl-dioxygenase (Acinetobacter johnsonii, UniProt Q8GNT2)", "experiment": "Relative activity of wild-type enzyme at non-limiting substrate concentrations", "format": "biochemical", "details": "relative activity, acetylacetone = 1.00, non-limiting substrate concentrations", "method": "(§1) The reaction rates were determined by using the microcomputer regression program provided with the spectrophotometer (Winspec) based on the first ten absorbance measurements made at 5-s intervals.\n(§2) Oxygen consumption during the enzyme reaction was measured with an oxygen-electrode-cell (Digital Oxygen System Model 10, Rank Brothers Ltd., Cambridge, England) as described previously (Beechey, R. B. and Ribbons, D. W. (1971). ‘Methods in Microbiology’.V. 6B. Edited by J. R. Norris and D. W. Ribbons. Academic press, London. ‘Oxygen electrode measurements’ (Chapter II) pp. 29-52.). The reaction mixture contained air-saturated KH2PO4-buffer, 50 mM, pH 7.5 at 25° C. (thermostat). The oxygen-electrode was calibrated by the sodium-sulfite-method. Varying concentrations of substrate (0.01-0.3 mM) were added and the resulting decrease of oxygen was determined."}, "[3]": {"biological_target": "T1, 1,3-dicarbonyl-dioxygenase (Acinetobacter johnsonii, UniProt Q8GNT2)", "experiment": "Products of various substrates determined by HPLC (cleavage stoichiometry, partially purified enzyme)", "format": "biochemical", "details": "substrate 4 mM, 25° C., one hour", "description": "The products of the enzyme reaction were identified directly from the reaction mixture by in situ ^1H-NMR-spectroscopy (Pokorny, D., L. Brecker, M. Pogorevc, H. Griengl, W. Steiner, T. Kappe, and D. W. Ribbons. 1999. Proton-Nuclear Magnetic Resonance Analyses of the Substrate Specificity of a β-Ketolase from Pseudomonas putida, Acetopyruvate Hydrolase. J. Bacteriol. 181: 5051-5059.). Therefore a 200 MHz narrow bore magnet (Varian Gemini™ 2000, Varian, Inc., Palo Alto, Calif.) and a 5 mm broadband probe head were used. The NMR tube was rotated at 20 rps. For a lock a D2O vortex capillary was added to avoid ^1H/D exchange reactions. The overwhelming water-signal was suppressed with a presaturation method (Guéron, M., P. Plateau and M. Decorps. 1991. Solvent signal suppression in NMR. Prog. NMR Spectrosc. 23: 135-209. Hore, J. P. 1989. Solvent suppression. p. 64. In N. J. Oppenheimer and J. T. James (eds.), Methods Enzymol. 176. Academic Press, Inc., San Diego.). The following parameters were adjusted for a ^1H-frequency of 200 MHz: presaturation-duration of 1.0 s, ^1H-pulse-angle of 90, an acquisition-time of 2.0 s and a relaxation delay of 1.5 s. 64 Scans were accumulated and after a zero filling to 32 k datapoints the free induction decay was Fourier transformed. The water signal (4.70 ppm) was used as a reference. For standard reaction analytics HPLC-measurements were performed (Hewlett-Packard, column: Aminex-HPX-87H, UV- and RI-detector, eluent Sulfuric acid 0.005 M).\nThe cleavage-stoichiometry of several non-symmetrical substrates was also investigated, in order to be able to determine the regiospecificity of the enzyme. This was done by conversion of the respective substrate with partially purified enzyme. Methylglyoxal and acetate formed were measured by HPLC. Remaining substrate was calculated."}, "[4]": {"biological_target": "T1, 1,3-dicarbonyl-dioxygenase", "experiment": "Substrate spectrum / apparent kinetic constants of purified 1,3-dicarbonyl-dioxygenase (UV assay and oxygen electrode)", "method": "as §1\nSubstrates were dissolved at a concentration of 0.001-1 mM in KH2PO4-buffer, 50 mM, pH 7.5 using a 10 mM stock solution. Duplicate absorption-measurements of 20 different dilutions were performed at 25° C. The molar absorption coefficients were calculated by linear regression.\nas §2\nAssuming the Michaelis-Menten-equation, Vmax and Ks values were calculated by non-linear curve-fit by the program microcal-origin. KO2 was estimated by polarographic methods, adding non limiting amounts of substrate (0.5-1 mM) and graphically determining the oxygen concentration at the point of half of the maximum activity. Ks-values were similarly confirmed by polarographic methods, by stepwise addition of substrate to a final concentration of 20-150 μM."}, "[5]": {"biological_target": "T1, 1,3-dicarbonyl-dioxygenase", "experiment": "Reaction analysis with purified enzyme by in situ 1H-NMR / HPLC", "format": "biochemical", "details": "no cofactor added"}, "[6]": {"biological_target": "T2, recombinant 1,3-dicarbonyl-dioxygenase (expressed in E.coli) (Acinetobacter johnsonii, UniProt Q8GNT2)", "T2 construct": "made in house; host or cells: E. coli XL1 Blue, plasmid pMS470 (tac promoter, NdeI/HindIII)", "experiment": "Relative activity of recombinant protein at non-limiting substrate concentrations", "format": "biochemical", "details": "relative activity, acetylacetone = 1.00, non-limiting substrate concentrations", "method": "Expression constructs were expressed in E.coli XL1 Blue (Stratagene, La Jolla, Calif.), which was grown to an OD of 1 at 30° C. on rotatory shakers in erlenmeyer flasks, then induced with IPTG (0.3 mM) and incubated for another 5 hours.\nas §1, §2"}, "[7]": {"biological_target": "T1, 1,3-dicarbonyl-dioxygenase", "experiment": "Determination of enzyme-activity and stability versus pH and additives", "format": "physicochemical", "method": "Activity measurements were performed with the oxygen-electrode, with KH2PO4-buffers adjusted to various pH-values [5.0-9.0]. For stability measurements, the enzyme was diluted ten-fold and incubated at various pH-values [5.0-9.0]. The activity was measured periodically with the UV-activity-assay."}, "[8]": {"details": "repeated exposure, peroral and inhalation routes"}, "[9]": {"details": "glycerol 10%, glucose 12.5%, ascorbate 1 mM, bovine serum albumin 1-20 mg/mL, dithiothreitol 1 mM, mercaptoethanol 1 mM"}}, "note": "Like-named read-outs stand apart in the source and are kept apart here."}
{"molecule": "1,3-dicarbonyl-dioxygenase (Acinetobacter johnsonii)", "values": [{"measurement": "Km", "setting": "CC(=O)C(C)C(C)=O", "value": "23.1 ± 6.8", "unit": "µM"}, {"measurement": "Km", "setting": "CC(=O)CC(=O)C(C)(C)C", "value": "14.2 ± 3.7", "unit": "µM"}, {"measurement": "Km", "setting": "CCCCC(=O)CC(C)=O", "value": "5.9 ± 1.5", "unit": "µM"}, {"measurement": "Km", "setting": "CC(=O)C1CCCCC1=O", "value": "18.1 ± 4.2", "unit": "µM"}, {"measurement": "Km", "setting": "CC(=O)C1CCCC1=O", "value": "21.0 ± 6.1", "unit": "µM"}, {"measurement": "Km", "setting": "CCCCCC(=O)CC(C)=O", "value": "7.5 ± 2.1", "unit": "µM"}]}
{"molecule": "CC(=O)CC(=O)C(F)(F)F", "note": "[1,1,1-trifluoroacetylacetone]", "values": [{"measurement": "inhibition of binding to tRNA of aflatoxin B1", "setting": "tRNA", "value": "inhibited"}]}
{"molecule": "O=C1CC(=O)c2ccccc21", "note": "[1,3-indandione]", "values": [{"measurement": "inhibition of mutagenicity of aflatoxin B1", "setting": "Salmonella typhimurium", "value": "inhibit"}, {"measurement": "inhibition of mutagenicity of benzo[a]pyrene", "setting": "Salmonella typhimurium", "value": "inhibit"}, {"measurement": "inhibition of mutagenicity of methylnitrosourea", "setting": "Salmonella typhimurium; concomitant exposure to inhibitor and mutagen necessary", "value": "inhibit"}, {"measurement": "inhibition of binding to tRNA of aflatoxin B1", "setting": "tRNA", "value": "inhibited"}]}
{"molecule": "CC(=O)CC(C)=O", "note": "[Acetylacetone, pentane-2,4-dione]", "values": [{"measurement": "fetotoxicity", "setting": "[1]; in vivo", "value": "fetotoxicity was observed"}, {"measurement": "immune system toxicity", "setting": "[1]; [8]", "value": "possible immune system toxicity"}, {"measurement": "neurotoxicity", "setting": "[1]; [8]", "value": "central neurotoxicity"}, {"measurement": "Vmax wild-type", "setting": "[2]", "value": 1.00}, {"measurement": "Substrate % (remaining)", "setting": "[3]; remaining substrate calculated", "value": 0, "unit": "%"}, {"measurement": "Acetate %", "setting": "[3]; oxygen saturated buffer", "value": 50, "unit": "%"}, {"measurement": "Methylglyoxal %", "setting": "[3]; oxygen saturated buffer", "value": 50, "unit": "%"}, {"measurement": "pH up to which the substrate is accepted by the enzyme", "setting": "[4]; activity-pH-relationship studies", "value": "≤ 9"}, {"measurement": "Vmaxrel.", "setting": "[4]; apparent, relative to acetylacetone = 1.00, purified wild-type enzyme", "value": 1.00}, {"measurement": "KO2", "setting": "[4]; apparent, polarographic, estimated from rate of oxygen depletion, substrate 0.5-1 mM", "value": "38 ± 6", "unit": "µM"}, {"measurement": "acetate found per mmol of acetyl-acetone cleaved", "setting": "[5]", "value": "one"}, {"measurement": "Vmax clone", "setting": "[6]", "value": 1.00}]}
{"molecule": "CC(=O)CC(=O)c1ccccc1", "note": "[benzoylacetone]", "values": [{"measurement": "inhibition of mutagenicity of 2-naphthohydroxamic acid", "setting": "Salmonella typhimurium", "value": "inhibit"}, {"measurement": "inhibition of binding to tRNA of benzo[a]pyrene", "setting": "tRNA", "value": "inhibited"}]}
{"molecule": "O=C(CC(=O)c1ccccc1)c1ccccc1", "note": "[dibenzoylmethane]", "values": [{"measurement": "inhibition of mutagenicity of 2-naphthohydroxamic acid", "setting": "Salmonella typhimurium", "value": "inhibit"}, {"measurement": "inhibition of mutagenicity of aflatoxin B1", "setting": "Salmonella typhimurium", "value": "inhibit"}, {"measurement": "inhibition of mutagenicity of benzo[a]pyrene", "setting": "Salmonella typhimurium", "value": "inhibit"}, {"measurement": "inhibition of mutagenicity of methylnitrosourea", "setting": "Salmonella typhimurium", "value": "inhibit"}, {"measurement": "inhibition of binding to tRNA of aflatoxin B1", "setting": "tRNA", "value": "inhibited"}, {"measurement": "inhibition of binding to tRNA of benzo[a]pyrene", "setting": "tRNA", "value": "inhibited"}]}
{"molecule": "OCC(O)CO", "note": "[glycerol]", "values": [{"measurement": "effect of potential stabilizing agent on enzyme stability", "setting": "[7]; [9]", "value": "did not enhance stability"}]}
{"molecule": "OCCS", "note": "[mercaptoethanol]", "values": [{"measurement": "effect of potential stabilizing agent on enzyme stability", "setting": "[7]", "value": "did not enhance stability"}]}
{"molecule": "bovine serum albumin: potential stabilizing agent added to the enzyme", "values": [{"measurement": "effect of potential stabilizing agent on enzyme stability", "setting": "[7]; [9]", "value": "did not enhance stability"}]}
{"molecule": "B1", "values": [{"measurement": "apparent Vmax of the purified enzyme", "setting": "[4]; acetylacetone as substrate", "value": 10.5, "unit": "U/mgEnzyme"}, {"measurement": "halftime-stability", "setting": "[7]; 0.05 mg/mL protein concentration, 4° C.", "value": 3550, "unit": "min"}, {"measurement": "pH of maximum stability", "setting": "[7]; enzyme incubated at pH 5.0-9.0", "value": "7.5-8.0"}, {"measurement": "pH of maximum activity", "setting": "[7]; oxygen electrode, KH2PO4-buffers pH 5.0-9.0", "value": "6.0-7.5"}]}
